In patent US20240209028A1, “CNP COMPOUNDS” (priority 2022, published 2024):
Starred links: 1 amine or outer side, 2 acyl side, 3 side chain; linkers in the order of their positions; H or OH if unused. Positions of bridges follow the written chain, without caps; N, C: chain ends. Residues, ends and D or L forms follow the SMILES beside them. *: point of attachment. C18 diacid = O=C(O)CCCCCCCCCCCCCCCCC(=O)*; γGlu = O=C(O)[C@H](CCC(=O)[*:2])N[*:1]; AEEA = NCCOCCOCC(=O)O

What follows are compounds tested against T1, human natriuretic peptide receptor 2 (hNPR2) (Homo sapiens, UniProt P20594) (assay: In vitro hNPR2 activity assay (cGMP GloSensor reporter, HEK293)). Conditions: potency relative to CNP22 (0065).
T1 construct: expressed in transfected cells; host or cells: HEK293 (ATCC CRL-1573), clone 35, co-transfected with pGloSensor-42F
T1 sequence (P20594 23-1047): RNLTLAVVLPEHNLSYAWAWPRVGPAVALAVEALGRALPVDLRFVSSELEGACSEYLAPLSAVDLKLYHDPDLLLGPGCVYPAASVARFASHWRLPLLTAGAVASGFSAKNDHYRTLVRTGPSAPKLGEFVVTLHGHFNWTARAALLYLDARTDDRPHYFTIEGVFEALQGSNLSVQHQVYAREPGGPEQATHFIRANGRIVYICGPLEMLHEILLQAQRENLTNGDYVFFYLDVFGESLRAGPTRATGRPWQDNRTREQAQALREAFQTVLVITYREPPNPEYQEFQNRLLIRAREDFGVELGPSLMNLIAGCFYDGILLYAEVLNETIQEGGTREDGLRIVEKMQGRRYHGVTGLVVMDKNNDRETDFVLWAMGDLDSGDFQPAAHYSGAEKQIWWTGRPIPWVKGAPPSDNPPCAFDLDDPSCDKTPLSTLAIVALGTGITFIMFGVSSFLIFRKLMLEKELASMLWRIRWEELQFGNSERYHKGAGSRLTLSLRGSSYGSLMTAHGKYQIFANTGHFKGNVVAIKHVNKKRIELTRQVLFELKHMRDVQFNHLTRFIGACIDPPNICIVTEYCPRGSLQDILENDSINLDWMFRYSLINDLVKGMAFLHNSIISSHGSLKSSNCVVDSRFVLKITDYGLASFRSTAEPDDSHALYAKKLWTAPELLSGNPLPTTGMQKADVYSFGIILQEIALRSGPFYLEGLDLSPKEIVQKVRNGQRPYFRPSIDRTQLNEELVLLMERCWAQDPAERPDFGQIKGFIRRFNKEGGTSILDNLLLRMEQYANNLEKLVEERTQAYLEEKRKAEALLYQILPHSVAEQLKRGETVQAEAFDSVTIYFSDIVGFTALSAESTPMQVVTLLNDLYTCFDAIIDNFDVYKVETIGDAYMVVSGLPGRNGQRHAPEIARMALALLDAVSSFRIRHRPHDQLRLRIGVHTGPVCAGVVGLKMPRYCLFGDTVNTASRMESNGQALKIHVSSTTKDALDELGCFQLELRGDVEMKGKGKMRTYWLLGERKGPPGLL
Format: cell-based
Method in brief: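 Potency is the EC50 from a four-parameter logistic fit, also expressed relative to the in-plate CNP22 control (×100), with at least two replicates. Compounds (ten concentrations, […], HSA-free diluent with 1% OVA, 0.01% Tween20) were incubated 30 min at 37 °C on HEK293 cells co-expressing hNPR2 and a GloSensor cGMP luciferase. Luminescence detected with Bright-Glo.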

Row | SMILES | hNPR2 0% HSA. [EC50% rel CNP] [%]
1 | CC[C@H](C)[C@@H]1NC(=O)[C@H](CCCNC(=N)N)NC(=O)[C@H](CC(=O)O)NC(=O)[C@H](CC(C)C)NC(=O)[C@@H]2CCCN2C(=O)[C@H](CC(C)C)NC(=O)CNC(=O)[C@H](Cc2ccccc2)NC(=O)[C@@H](NC(=O)CNC(=O)[C@H](CCCCN)NC(=O)[C@H](CO)NC(=O)[C@H](CC(C)C)NC(=O)CNC(=O)[C@H](CCCCN)NC(=O)[C@H](CCCCN)NC(=O)[C@H](CCC(N)=O)NC(=O)[C@H](C)NC(=O)CNC(=O)[C@H](CCC(=O)O)NC(=O)[C@H](Cc2ccc(O)cc2)NC(=O)COCCOCCNC(=O)COCCOCCNC(=O)COCCOCCNC(=O)COCCOCCNC(=O)CC[C@H](NC(=O)CCCCCCCCCCCCCCCCC(=O)O)C(=O)O)CSSC[C@@H](C(=O)O)NC(=O)CNC(=O)[C@H](CC(C)C)NC(=O)CNC(=O)[C@H](CO)NC(=O)[C@H](CC(C)C)NC(=O)[C@H](CO)NC(=O)CNC1=O [compound 1375] ({C18 diacid-γGlu-AEEA-AEEA-AEEA-AEEA}-YEGAQKKGLSKGCFGLPLDRIGSLSGLGC-OH; disulfide 13-29; C-terminus assumed) | 16.2
2 | CC[C@H](C)[C@@H]1NC(=O)[C@H](CCCNC(=N)N)NC(=O)[C@H](CC(=O)O)NC(=O)[C@H](CC(C)C)NC(=O)[C@@H]2CCCN2C(=O)[C@H](CC(C)C)NC(=O)CNC(=O)[C@H](Cc2ccccc2)NC(=O)[C@@H](NC(=O)CNC(=O)[C@H](CO)NC(=O)[C@H](CO)NC(=O)[C@H](CC(C)C)NC(=O)CNC(=O)[C@H](CCCCN)NC(=O)[C@H](CCCCN)NC(=O)[C@H](CCC(N)=O)NC(=O)[C@H](C)NC(=O)CNC(=O)[C@H](CCC(=O)O)NC(=O)[C@H](Cc2ccc(O)cc2)NC(=O)[C@H](CO)NC(=O)[C@H](CCCNC(=N)N)NC(=O)[C@H](C)NC(=O)[C@H](CCC(N)=O)NC(=O)[C@@H]2CCCN2C(=O)[C@H](Cc2c[nH]cn2)NC(=O)[C@H](CCC(=O)O)NC(=O)[C@H](CCC(N)=O)NC(=O)COCCOCCNC(=O)COCCOCCNC(=O)CC[C@H](NC(=O)CCCCCCCCCCCCCCCCC(=O)O)C(=O)O)CSSC[C@@H](C(=O)O)NC(=O)CNC(=O)[C@H](CC(C)C)NC(=O)CNC(=O)[C@H](CO)NC(=O)[C@H](CC(C)C)NC(=O)[C@H](CO)NC(=O)CNC1=O [compound 1379] ({C18 diacid-γGlu-AEEA-AEEA}-QEHPQARSYEGAQKKGLSSGCFGLPLDRIGSLSGLGC-OH; disulfide 21-37; C-terminus assumed) | 33.5
3 | CC[C@H](C)[C@@H]1NC(=O)[C@H](CCCNC(=N)N)NC(=O)[C@H](CC(=O)O)NC(=O)[C@H](CC(C)C)NC(=O)[C@@H]2CCCN2C(=O)[C@H](CC(C)C)NC(=O)CNC(=O)[C@H](Cc2ccccc2)NC(=O)[C@@H](NC(=O)CNC(=O)[C@H](CO)NC(=O)[C@H](CO)NC(=O)[C@H](CC(C)C)NC(=O)CNC(=O)[C@H](CCCCN)NC(=O)[C@H](CCCCN)NC(=O)[C@H](CCC(N)=O)NC(=O)[C@H](C)NC(=O)CNC(=O)[C@H](CCCCN)NC(=O)[C@H](Cc2ccc(O)cc2)NC(=O)[C@H](CCCCN)NC(=O)[C@H](CCCNC(=N)N)NC(=O)[C@H](C)NC(=O)[C@H](CCC(N)=O)NC(=O)[C@@H]2CCCN2C(=O)[C@H](Cc2c[nH]cn2)NC(=O)[C@H](CCC(=O)O)NC(=O)[C@H](CCC(N)=O)NC(=O)CC[C@H](NC(=O)CC[C@H](NC(=O)CC[C@H](NC(=O)CC[C@H](NC(=O)CCCCCCCCCCCCCCCCC(=O)O)C(=O)O)C(=O)O)C(=O)O)C(=O)O)CSSC[C@@H](C(=O)O)NC(=O)CNC(=O)[C@H](CC(C)C)NC(=O)CNC(=O)[C@H](CO)NC(=O)[C@H](CC(C)C)NC(=O)[C@H](CO)NC(=O)CNC1=O [compound 1389] ({C18 diacid-γGlu-γGlu-γGlu-γGlu}-QEHPQARKYKGAQKKGLSSGCFGLPLDRIGSLSGLGC-OH; disulfide 21-37) | 52.3
4 | CC[C@H](C)[C@@H]1NC(=O)[C@H](CCCNC(=N)N)NC(=O)[C@H](CC(=O)O)NC(=O)[C@H](CC(C)C)NC(=O)[C@@H]2CCCN2C(=O)[C@H](CC(C)C)NC(=O)CNC(=O)[C@H](Cc2ccccc2)NC(=O)[C@@H](NC(=O)CNC(=O)[C@H](CO)NC(=O)[C@H](CO)NC(=O)[C@H](CC(C)C)NC(=O)CNC(=O)[C@H](CCCCN)NC(=O)[C@H](CCCCN)NC(=O)[C@H](CCC(N)=O)NC(=O)[C@H](C)NC(=O)CNC(=O)[C@H](CCCCN)NC(=O)[C@H](Cc2ccc(O)cc2)NC(=O)COCCOCCNC(=O)COCCOCCNC(=O)COCCOCCNC(=O)CC[C@H](NC(=O)CC[C@H](NC(=O)CCCCCCCCCCCCCCCCC(=O)O)C(=O)O)C(=O)O)CSSC[C@@H](C(=O)O)NC(=O)CNC(=O)[C@H](CC(C)C)NC(=O)CNC(=O)[C@H](CO)NC(=O)[C@H](CC(C)C)NC(=O)[C@H](CO)NC(=O)CNC1=O [compound 1356] ({C18 diacid-γGlu-γGlu-AEEA-AEEA-AEEA}-YKGAQKKGLSSGCFGLPLDRIGSLSGLGC-OH; disulfide 13-29; C-terminus assumed) | 22.4
5 | CC[C@H](C)[C@@H]1NC(=O)[C@H](CCCNC(=N)N)NC(=O)[C@H](CC(=O)O)NC(=O)[C@H](CC(C)C)NC(=O)[C@@H]2CCCN2C(=O)[C@H](CC(C)C)NC(=O)CNC(=O)[C@H](Cc2ccccc2)NC(=O)[C@@H](NC(=O)CNC(=O)[C@H](CO)NC(=O)[C@H](CO)NC(=O)[C@H](CC(C)C)NC(=O)CNC(=O)[C@H](CCCCN)NC(=O)[C@H](CCCCN)NC(=O)[C@H](CCC(N)=O)NC(=O)[C@H](C)NC(=O)CNC(=O)[C@H](CCCCN)NC(=O)[C@H](Cc2ccc(O)cc2)NC(=O)[C@H](CCCCN)NC(=O)[C@H](CCCNC(=N)N)NC(=O)[C@H](C)NC(=O)CC[C@H](NC(=O)CC[C@H](NC(=O)CC[C@H](NC(=O)CC[C@H](NC(=O)CCCCCCCCCCCCCCCCC(=O)O)C(=O)O)C(=O)O)C(=O)O)C(=O)O)CSSC[C@@H](C(=O)O)NC(=O)CNC(=O)[C@H](CC(C)C)NC(=O)CNC(=O)[C@H](CO)NC(=O)[C@H](CC(C)C)NC(=O)[C@H](CO)NC(=O)CNC1=O [compound 1386] ({C18 diacid-γGlu-γGlu-γGlu-γGlu}-ARKYKGAQKKGLSSGCFGLPLDRIGSLSGLGC-OH; disulfide 16-32) | 36.9
6 | CC[C@H](C)[C@@H]1NC(=O)[C@H](CCCNC(=N)N)NC(=O)[C@H](CC(=O)O)NC(=O)[C@H](CC(C)C)NC(=O)[C@@H]2CCCN2C(=O)[C@H](CC(C)C)NC(=O)CNC(=O)[C@H](Cc2ccccc2)NC(=O)[C@@H](NC(=O)CNC(=O)[C@H](CCC(N)=O)NC(=O)[C@H](CO)NC(=O)[C@H](CO)NC(=O)CNC(=O)[C@H](Cc2c[nH]cn2)NC(=O)[C@H](Cc2c[nH]cn2)NC(=O)[C@H](CCC(N)=O)NC(=O)[C@H](C)NC(=O)CNC(=O)[C@H](Cc2c[nH]cn2)NC(=O)[C@H](Cc2ccc(O)cc2)NC(=O)[C@H](CCCCN)NC(=O)[C@H](Cc2c[nH]cn2)NC(=O)[C@H](C)NC(=O)[C@H](CCC(N)=O)NC(=O)[C@@H]2CCCN2C(=O)[C@H](Cc2c[nH]cn2)NC(=O)[C@H](CCC(=O)O)NC(=O)[C@H](CCC(N)=O)NC(=O)COCCOCCNC(=O)COCCOCCNC(=O)CC[C@H](NC(=O)CCCCCCCCCCCCCCCCC(=O)O)C(=O)O)CSSC[C@@H](C(=O)O)NC(=O)CNC(=O)[C@H](CC(C)C)NC(=O)CNC(=O)[C@H](CO)NC(=O)[C@H](CC(C)C)NC(=O)[C@H](CO)NC(=O)CNC1=O [compound 1381] ({C18 diacid-γGlu-AEEA-AEEA}-QEHPQAHKYHGAQHHGSSQGCFGLPLDRIGSLSGLGC-OH; disulfide 21-37) | 38.7
